This is an account of results in patent publication US20240300980A1, “HETEROCYCLIC COMPOUNDS AS KRAS INHIBITOR, AND PREPARATION THEREFOR AND USE THEREOF IN TREATMENT” (SHANGHAI KECHOW PHARMA, INC., priority 2021, published 2024).

For the assay, the system named is AGS cells (KRAS^G12D). Description: Detection of cell proliferation in vitro by MTT/MTS method (cell activity experiment). The following applies: Homo sapiens, AGS, 72 h, AGS cells; MTT/MTS; 3 days of drug treatment; read-out: AGS IC50. In kind it is cell-based. Summed up:
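After 3-day compound exposure (final DMSO 0.5%), viability of AGS (KRAS G12D) cells, plated 1000/well one day before dosing, was measured at 490 nm following 4 h MTT or MTS incubation. IC50 was fitted from dose–effect curves relative to DMSO-treated wells.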
Turning to `Oc1cc(-c2ccc3c(N4C[C@H]5CC[C@@H](C4)N5)nc(OC[C@@]45CCCN4C[C@H](F)C5)nc3c2)c2c(F)c(F)ccc2c1` [Example 150, 4-(4-((1R,5S)-3,8-diazabicyclo[3.2.1]octan-3-yl)-2-(((2R, 7aS)-2-fluorotetrahydro-1H-pyrrolizin-7a(5H)-yl)methoxy)quinazolin-7-yl)-5,6-difluoronaphthalen-2-ol], the half-inhibitory concentration (IC50) is 330 nM.
As for `CC1OCCc2cc(O)cc(-c3c4c(c5c(N6C[C@H]7CC[C@@H](C6)N7)nc(OC[C@@]67CCCN6C[C@H](F)C7)nc5c3F)OCO4)c21` (stereo partly drawn) [Example 392, 8-(9-((1R,5S)-3,8-diazabicyclo[3.2.1]octan-3-yl)-5-fluoro-7-(((2R,7aS)-2-fluorotetrahydro-1H-pyrrolizin-7a(5H)-yl)methoxy)-[1,3]dioxolo[4,5-f]quinazolin-4-yl)-1-methylisochroman-6-ol], the figure is 110 nM.
The result for `Oc1cc(O)c2c(C#Cc3ccc4c(N5C[C@H]6CC[C@@H](C5)N6)nc(OC[C@@]56CCCN5C[C@H](F)C6)nc4c3F)c(F)ccc2c1` [Example 366, 8-((4-((1R,5S)-3,8-diazabicyclo[3.2.1]octan-3-yl)-8-fluoro-2-(((2R,7aS)-2-fluorotetrahydro-1H-pyrrolizin-7a(5H)-yl)methoxy)quinazolin-7-yl)ethynyl)-7-fluoronaphthalene-1,3-diol] reads 2100 nM.
As for `CCc1c(F)ccc2cc(O)cc(-c3ccc4c(N5C[C@H]6CC[C@@H](C5)S6)nc(OC[C@@]56CCCN5C[C@H](F)C6)nc4c3F)c12` [Example 161, 4-(4-((1R,5S)-8-thia-3-azabicyclo[3.2.1]octan-3-yl)-8-fluoro-2-(((2R,7aS)-2-fluorotetrahydro-1H-pyrrolizin-7a(5H)-yl)methoxy)quinazolin-7-yl)-5-ethyl-6-fluoronaphthalen-2-ol], the figure is 236 nM; as for `CCc1c(F)ccc2cc(O)cc(-c3cnc4c(N5C[C@H]6CC[C@@H](C5)N6)nc(OC[C@@]56CCCN5C[C@H](F)C6)nc4c3)c12` [Example 201, 4-(4-((1R,5S)-3,8-diazabicyclo[3.2.1]octan-3-yl)-2-(((2R,7aS)-2-fluorotetrahydro-1H-pyrrolizin-7a(5H)-yl)methoxy)pyrido[3,2-d]pyrimidin-7-yl)-5-ethyl-6-fluoronaphthalen-2-ol], more than 2500 nM; as for `C#Cc1c(F)ccc2cc(O)cc(-c3ccc4c(N5CC6CCCNC6C5)nc(OC[C@@]56CCCN5C[C@H](F)C6)nc4c3F)c12` (stereo partly drawn) [Example 112, 5-ethynyl-6-fluoro-4-(8-fluoro-2-(((2R,7aS)-2-fluorotetrahydro-1H-pyrrolizin-7a(5H)-yl)methoxy)-4-(octahydro-6H-pyrrolo[3,4-b]pyridin-6-yl)quinazolin-7-yl) naphthalen-2-ol], more than 2500 nM.
Turning to `CCC1CCc2cc(O)cc(-c3c(F)c4nc(OC[C@@]56CCCN5C[C@H](F)C6)nc(N5C[C@H]6CC[C@@H](C5)N6)c4c4nccn34)c21` (stereo partly drawn) [Example 415, 7-(10-((1R,5S)-3,8-diazabicyclo[3.2.1]octan-3-yl)-6-fluoro-8-(((2R,7aS)-2-fluorotetrahydro-1H-pyrrolizin-7a(5H)-yl)methoxy)imidazo[1′,2′:1,2]pyrido[4,3-d]pyrimidin-5-yl)-1-ethyl-2,3-dihydro-1H-inden-5-ol], the half-maximal inhibitory concentration (IC50) came out at 60 nM.
The result for `C[C@@H]1OCC2(CCN(c3nc(OC[C@@]45CCCN4C[C@H](F)C5)nc4c(F)c(-c5cc(O)cc6ccc(F)c(F)c56)ncc34)CC2)[C@@H]1N` [Example 57, 4-(4-((3S,4S)-4-amino-3-methyl-2-oxa-8-azaspiro[4.5]decan-8-yl)-8-fluoro-2-(((2R, 7aS)-2-fluorotetrahydro-1H-pyrrolizin-7a(5H)-yl)methoxy)pyrido[4,3-d]pyrimidin-7-yl)-5,6-difluoronaphthalen-2-ol] reads more than 2500 nM.
